Experimental data reported in ChEMBL document CHEMBL3608236, “Understanding the chemistry behind the antioxidant activities of butylated hydroxytoluene (BHT): a review” (Eur J Med Chem, 2015).
Converted amounts (≈) assume the structure as drawn.

Assay: Antioxidant activity assessed as hydrogen peroxide scavenging activity
Type: physicochemical

| Structure (SMILES) | IC50 |
| --- | --- |
| Oc1ccc(-c2nnc(S)n2/N=C/c2ccccc2)cc1 | 24 µg/mL (≈ 81 µM) |
| Oc1ccc(-c2nnc(S)n2/N=C/c2cccc(O)c2)cc1 | 20 µg/mL (≈ 64 µM) |
| O=[N+]([O-])c1cccc(/C=N/n2c(S)nnc2-c2ccc(O)cc2)c1 | 38 µg/mL (≈ 111 µM) |

Continued, values first:

| IC50 | Structure (SMILES) |
| --- | --- |
| 60 µg/mL (≈ 181 µM) | Oc1ccc(-c2nnc(S)n2/N=C/c2ccccc2Cl)cc1 |
| 32 µg/mL (≈ 93.7 µM) | O=[N+]([O-])c1ccccc1/C=N/n1c(S)nnc1-c1ccc(O)cc1 |
